Results as given in patent US10919916B2, “Boron-containing small molecules” (Bill & Melinda Gates Foundation, priority 2016, dated 2021).
Converted amounts (≈) assume the structure as drawn. Where two headings read alike, the source gives them in different places.

How the values were obtained:
[1] = test system: Staphylococcus aureus, MRSA (ATCC 33591); test: Antibacterial MIC assay (microbroth dilution, CLSI); format: cell-based; details: read-out: MIC Staphylococcus aureus, MRSA (ATCC 33591)
Method in brief: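 Microbroth dilution per CLSI M07-A10/M100-S25 in cation-adjusted Mueller-Hinton broth, with 3% lysed horse blood added for S. pneumoniae. Inoculum from a 0.5 McFarland direct colony suspension, diluted to 5×10^5 CFU/mL in the well. Compounds were 2-fold serially diluted; MIC read against a growth control.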

[2] = test system: Streptococcus pneumoniae (ATCC 49619); test: as above; format: cell-based
Method in brief: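 CLSI broth microdilution: 2-fold compound dilutions in cation-adjusted Mueller-Hinton broth supplemented with 3% lysed horse blood for S. pneumoniae, inoculum 5×10^5 CFU/mL from a 0.5 McFarland direct colony suspension, with growth control.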

[3] = ATCC49619, read-out: MIC Streptococcus pneumoniae (ATCC 49619)
[4] = microbroth dilution, cation-adjusted Mueller-Hinton broth, 35° C. for 16-20 hours
[5] = ATCC49619, microbroth dilution, 3% lysed horse blood, 35° C. for 16-20 hours, read-out: MIC Streptococcus pneumoniae (ATCC 49619)

MIC [1, 4]	MIC [2, 5]	SMILES	MIC [1]	MIC [2, 3]
		C=C[C@]1(C)C[C@@H](OC(=O)COc2ccc3c(c2)B(O)N(S(C)(=O)=O)N=C3)[C@]2(C)[C@H](C)CC[C@]3(CCC(=O)[C@H]32)[C@@H](C)[C@@H]1O [Compound 75, (3aR,4R,5R,7S,8S,9R,9aS,12R)-8-hydroxy-4,7,9,12-tetramethyl-3-oxo-7-vinyldecahydro-4,9a-propanocyclopenta[8]annulen-5-yl 2-((1-hydroxy-2-(methylsulfonyl)-1,2-dihydrobenzo[d][1,2,3]diazaborinin-7-yl)oxy)acetate]	< 0.25 µg/mL	0.5 to 2 µg/mL (≈ 0.833 to 3.33 µM)
		C=C[C@]1(C)C[C@@H](OC(=O)COc2ccc3c(c2F)B(O)N(S(C)(=O)=O)N=C3)[C@]2(C)[C@H](C)CC[C@]3(CCC(=O)[C@H]32)[C@@H](C)[C@@H]1O [Compound 80, (3aR,4R,5R,7S,8S,9R,9aS,12R)-8-hydroxy-4,7,9,12-tetramethyl-3-oxo-7-vinyldecahydro-4,9a-propanocyclopenta[8]annulen-5-yl 2-((8-fluoro-1-hydroxy-2-(methylsulfonyl)-1,2-dihydrobenzo[d][1,2,3]diazaborinin-7-yl)oxy)acetate]	< 0.25 µg/mL	0.5 to 2 µg/mL (≈ 0.808 to 3.23 µM)
< 0.25 µg/mL	< 0.25 µg/mL	C=C[C@]1(C)C[C@@H](OC(=O)COc2ccc3c(c2)B(O)N(C)N=C3)[C@]2(C)[C@H](C)CC[C@]3(CCC(=O)[C@H]32)C[C@@H]1O [Compound 83, (3aR,4R,5R,7S,8S,9aS,12R)-8-hydroxy-4,7,12-trimethyl-3-oxo-7-vinyldecahydro-4,9a-propanocyclopenta[8]annulen-5-yl 2-((1-hydroxy-2-methyl-1,2-dihydrobenzo[d][1,2,3]diazaborinin-7-yl)oxy)acetate]		
		C=C[C@]1(C)C[C@@H](OC(=O)COc2ccc3c(c2F)B(O)N(C)N=C3)[C@]2(C)[C@H](C)CC[C@]3(CCC(=O)[C@H]32)[C@@H](C)[C@@H]1O [Compound 85, (3aR,4R,5R,7S,8S,9R,9aS,12R)-8-hydroxy-4,7,9,12-tetramethyl-3-oxo-7-vinyldecahydro-4,9a-propanocyclopenta[8]annulen-5-yl 2-((8-fluoro-1-hydroxy-2-methyl-1,2-dihydrobenzo[d][1,2,3]diazaborinin-7-yl)oxy)acetate]	< 0.25 µg/mL	< 0.25 µg/mL
		C=C[C@]1(C)C[C@@H](OC(=O)COc2ccc3c(c2)B(O)N(C(C)=O)N=C3)[C@]2(C)[C@H](C)CC[C@]3(CCC(=O)[C@H]32)[C@@H](C)[C@@H]1O [Compound 87, (3aR,4R,5R,7S,8S,9R,9aS,12R)-8-hydroxy-4,7,9,12-tetramethyl-3-oxo-7-vinyldecahydro-4,9a-propanocyclopenta[8]annulen-5-yl 2-((2-acetyl-1-hydroxy-1,2-dihydrobenzo[d][1,2,3]diazaborinin-7-yl)oxy)acetate]	< 0.25 µg/mL	< 0.25 µg/mL
		C=C[C@]1(C)C[C@@H](OC(=O)COc2ccc3c(c2F)B(O)N(C(C)=O)N=C3)[C@]2(C)[C@H](C)CC[C@]3(CCC(=O)[C@H]32)[C@@H](C)[C@@H]1O [Compound 89, (3aR,4R,5R,7S,8S,9R,9aS,12R)-8-hydroxy-4,7,9,12-tetramethyl-3-oxo-7-vinyldecahydro-4,9a-propanocyclopenta[8]annulen-5-yl 2-((2-acetyl-8-fluoro-1-hydroxy-1,2-dihydrobenzo[d][1,2,3]diazaborinin-7-yl)oxy)acetate]	< 0.25 µg/mL	< 0.25 µg/mL
		C=C[C@]1(C)C[C@@H](OC(=O)COc2ccc3c(c2)B(O)N(C(=O)OC)N=C3)[C@]2(C)[C@H](C)CC[C@]3(CCC(=O)[C@H]32)[C@@H](C)[C@@H]1O [Compound 91, Methyl 1-hydroxy-7-(2-(((3aR,4R,5R,7S,8S,9R,9aS,12R)-8-hydroxy-4,7,9,12-tetramethyl-3-oxo-7-vinyldecahydro-4,9a-propanocyclopenta[8]annulen-5-yl)oxy)-2-oxoethoxy)benzo[d][1,2,3]diazaborinine-2(1H)-carboxylate]	< 0.25 µg/mL	0.5 to 2 µg/mL (≈ 0.861 to 3.45 µM)
		C=C[C@]1(C)C[C@@H](OC(=O)COc2ccc3c(c2F)B(O)N(C(=O)OC)N=C3)[C@]2(C)[C@H](C)CC[C@]3(CCC(=O)[C@H]32)[C@@H](C)[C@@H]1O [Compound 93, Methyl 8-fluoro-1-hydroxy-7-(2-(((3aR,4R,5R,7S,8S,9R,9aS,12R)-8-hydroxy-4,7,9,12-tetramethyl-3-oxo-7-vinyldecahydro-4,9a-propanocyclopenta[8]annulen-5-yl)oxy)-2-oxoethoxy)benzo[d][1,2,3]diazaborinine-2(1H)-carboxylate]	< 0.25 µg/mL	0.5 to 2 µg/mL (≈ 0.835 to 3.34 µM)
		C=C[C@]1(C)C[C@@H](OC(=O)COc2ccc3c(c2C)B(O)N(C(=O)OC)N=C3)[C@]2(C)[C@H](C)CC[C@]3(CCC(=O)[C@H]32)[C@@H](C)[C@@H]1O [Compound 94, Methyl 1-hydroxy-7-(2-(((3aR,4R,5R,7S,8S,9R,9aS,12R)-8-hydroxy-4,7,9,12-tetramethyl-3-oxo-7-vinyldecahydro-4,9a-propanocyclopenta[8]annulen-5-yl)oxy)-2-oxoethoxy)-8-methylbenzo[d][1,2,3]diazaborinine-2(1H)-carboxylate]	< 0.25 µg/mL	0.5 to 2 µg/mL (≈ 0.841 to 3.36 µM)
		C=C[C@]1(C)C[C@@H](OC(=O)COc2ccc3c(c2)B(O)ON=C3)[C@]2(C)[C@H](C)CC[C@]3(CCC(=O)[C@H]32)[C@@H](C)[C@@H]1O [Compound 96, (3aR,4R,5R,7S,8S,9R,9aS,12R)-8-hydroxy-4,7,9,12-tetramethyl-3-oxo-7-vinyldecahydro-4,9a-propanocyclopenta[8]annulen-5-yl 2-((1-hydroxy-1H-benzo[d][1,2,6]oxazaborinin-7-yl)oxy)acetate]	< 0.25 µg/mL	0.5 to 2 µg/mL (≈ 0.955 to 3.82 µM)
		C=C[C@]1(C)C[C@@H](OC(=O)COc2ccc3c(c2F)B(O)ON=C3)[C@]2(C)[C@H](C)CC[C@]3(CCC(=O)[C@H]32)[C@@H](C)[C@@H]1O [Compound 97, (3aR,4R,5R,7S,8S,9R,9aS,12R)-8-hydroxy-4,7,9,12-tetramethyl-3-oxo-7-vinyldecahydro-4,9a-propanocyclopenta[8]annulen-5-yl 2-((8-fluoro-1-hydroxy-1H-benzo[d][1,2,6]oxazaborinin-7-yl)oxy)acetate]	< 0.25 µg/mL	0.5 to 2 µg/mL (≈ 0.923 to 3.69 µM)
< 0.25 µg/mL	0.5 to 2 µg/mL (≈ 0.962 to 3.85 µM)	C=C[C@]1(C)C[C@@H](OC(=O)COc2ccc3c(c2)NB(C)C=C3)[C@]2(C)[C@H](C)CC[C@]3(CCC(=O)[C@H]32)[C@@H](C)[C@@H]1O [Compound 104, (3aR,4R,5R,7S,8S,9R,9aS,12R)-8-hydroxy-4,7,9,12-tetramethyl-3-oxo-7-vinyldecahydro-4,9a-propanocyclopenta[8]annulen-5-yl 2-((2-methyl-1,2-dihydrobenzo[e][1,2]azaborinin-7-yl)oxy)acetate]		
